The source of these data is article PMC2254147, “Novel Triazine JPC-2067-B Inhibits Toxoplasma gondii In Vitro and In Vivo” (PLoS Neglected Tropical Diseases, 2008).

In this assay the target is T1, Mav DHFR (Mycobacterium avium, UniProt O30463).
T1 construct: the bacteria were centrifuged, sonicated, and the 100,000 Xg supernate was stored under liquid nitrogen until assay; endogenous in cells; host or cells: M. avium-intracellulare clinical isolate (serovar 4), Indiana University School of Medicine
T1 sequence (O30463 1-181): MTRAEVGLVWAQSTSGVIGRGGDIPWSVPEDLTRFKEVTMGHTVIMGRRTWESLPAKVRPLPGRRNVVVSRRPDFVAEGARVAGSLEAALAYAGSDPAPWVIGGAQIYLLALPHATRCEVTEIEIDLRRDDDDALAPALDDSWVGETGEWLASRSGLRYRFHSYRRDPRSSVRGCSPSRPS
The experiment in a line: Spectrophotometric DHFR assay, Mycobacterium avium-intracellulare DHFR. Type of assay: biochemical. Particulars: 37°C; (95% confidence limits). How it is done: Mycobacterium avium-intracellulare used in these studies was a clinical isolate (serovar 4) from Indiana University School of Medicine, Department of Pathology. The strain was maintained on Lowenstein-Jensen slants (Baxter Scientific) grown at room temperature. To produce enzyme, the organism was grown in Middlebrook 7H-9 liquid medium at 37°C to an OD660 of 0.5 to 0.7, which took several weeks. At harvest, the bacteria were centrifuged, sonicated, and the 100,000 Xg supernate was stored under liquid nitrogen until assay. These supernates contained both DHFR and dihydroopteroate synthetase activity.
The spectrophotometric assay for DHFR was optimized for temperature and concentration of substrate and cofactor for each enzyme. The standard assay contained Na phosphate buffer pH 7.4 (40.7 mM), 2-mercaptoethanol (8.9 mM), NADPH (0.117 mM), dihydrofolic acid (0.09 mM), KCL (150 mM), and sufficient enzyme to produce a change in OD340 of 0.035/minute at 37°C. The reaction was continuously recorded for 3 minutes. Activity under these conditions was linear with enzyme concentration over a 4-fold range. The low background activity in the absence of dihydrofolic acid was subtracted from all rates.
DHFR was assayed with several concentrations of inhibitor to produce rates ranging from 1 to 90% of the uninhibited rate. At least three concentrations were required for calculation; most curves contained five concentrations.

What is called IC50 is the concentration at which inhibition is half-maximal. High values mean a need for much substance, low ones inhibition by little substance. As for `CC1(C)N=C(N)N=C(N)N1OCCCOc1ccc(OC(F)(F)F)cc1Cl` [JPC-2067-B, 4,6-diamino-1,2-dihydro-2,2-dimethyl-1-(3′(2-chloro-, 4-trifluoromethoxyphenoxy)propyloxy)-1,3,5-triazine], the IC50 came out at 3.75 nM.
